Measured values as given in patent US20170209348A1, “BIOPHOTONIC COMPOSITIONS COMPRISING HALOGEN AND USES THEREOF” (KLOX Technologies Inc., priority 2014, published 2017).

Experiment: Photobleaching of Eosin Y in carbomer gel under blue light
Type: physicochemical
Details: 109 μg/g Eosin Y, 12% urea peroxide, 200 ppm KI, blue light 5 cm, 10 minutes
Method: In this experiment, a first carbomer gel comprising 109 μg/g of Eosin Y and 12% urea peroxide (UP) was prepared. […] The two gels were then illuminated with blue light (5 cm distance) for 10 minutes. The fluorescence was measured and recorded by a spectrophotometer.

SMILES: [I-].[K+] [KI]
- time taken to photobleach the chromophore: prolonged the time taken to photobleach the chromophore
